In publication PMC4687525, “Drosophila Avoids Parasitoids by Sensing Their Semiochemicals via a Dedicated Olfactory Circuit” (PLoS Biology, 2015):

Target: T1, Or85f (Drosophila melanogaster, UniProt Q9VHE6)
T1 construct: full-length receptor, UAS-Or85f transgene expressed in mutant ab3A neuron lacking Or22a (delta-halo empty neuron); endogenous Orco; with Odorant receptor coreceptor
T1 sequence (Q9VHE6 1-392): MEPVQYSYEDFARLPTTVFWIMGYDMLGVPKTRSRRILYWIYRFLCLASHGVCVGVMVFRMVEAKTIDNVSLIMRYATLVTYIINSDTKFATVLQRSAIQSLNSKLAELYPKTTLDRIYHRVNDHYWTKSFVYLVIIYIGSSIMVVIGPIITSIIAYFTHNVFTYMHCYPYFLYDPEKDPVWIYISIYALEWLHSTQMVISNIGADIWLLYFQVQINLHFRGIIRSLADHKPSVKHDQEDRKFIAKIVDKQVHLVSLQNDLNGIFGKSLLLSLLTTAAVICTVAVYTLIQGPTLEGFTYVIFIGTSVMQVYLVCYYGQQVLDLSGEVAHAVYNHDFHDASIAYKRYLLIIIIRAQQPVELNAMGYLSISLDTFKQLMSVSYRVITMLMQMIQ
T1 sequence (Q9VNB5 1-486 partner): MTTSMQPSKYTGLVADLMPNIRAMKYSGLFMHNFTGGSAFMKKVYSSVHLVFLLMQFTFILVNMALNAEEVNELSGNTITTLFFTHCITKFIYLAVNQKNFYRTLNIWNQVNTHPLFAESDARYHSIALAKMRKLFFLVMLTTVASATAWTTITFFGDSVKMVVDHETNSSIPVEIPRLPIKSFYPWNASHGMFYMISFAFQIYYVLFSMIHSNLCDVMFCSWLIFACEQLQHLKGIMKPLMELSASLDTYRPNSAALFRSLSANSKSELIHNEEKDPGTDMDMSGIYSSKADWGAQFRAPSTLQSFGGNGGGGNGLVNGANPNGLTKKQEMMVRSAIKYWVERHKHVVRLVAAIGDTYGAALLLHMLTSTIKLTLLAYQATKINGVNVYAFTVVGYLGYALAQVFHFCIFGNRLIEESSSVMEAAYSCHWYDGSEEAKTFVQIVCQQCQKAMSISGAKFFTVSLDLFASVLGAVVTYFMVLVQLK
Test: GC-coupled single sensillum recording, empty neuron (ab3A)
Format: cell-based
Conditions: agonist

[1] = reference sample described as racemic

Compound	GC-coupled single sensillum recording, empty neuron (ab3A) [1]	GC-coupled single sensillum recording, empty neuron (ab3A)
CC1=CO[C@@H](O)[C@@H]2[C@@H]1CC[C@@H]2C (racemic) [1R4aS7S7aS-nepetalactol]	1S4aR7R7aS, 1R4aS7S7aS-nepetalactol and their enantiomers) activated OSNs expressing Or85f	–
CC1=CO[C@H](O)[C@H]2[C@H](C)CC[C@@H]12 (racemic) [1S4aR7R7aS-nepetalactol]	1S4aR7R7aS, 1R4aS7S7aS-nepetalactol and their enantiomers) activated OSNs expressing Or85f	–
Cc1cncc2c1CC[C@H]2C [(R)-actinidine]	–	When we tested OSNs misexpressing Or85f, they became activated by (R)-actinidine and nepetalactol
